US20250215016A1, “ISOXAZOLE-HETEROCYCLIC DERIVATIVE, PHARMACEUTICAL COMPOSITION AND USE” (SHANGHAI SIMR BIOTECHNOLOGY CO., LTD, priority 2022, published 2025)

Assays:
[1] = biological target: human α5β3γ2 receptor (α5-GABAA receptor) (Homo sapiens (Human), UniProt P18507+P31644); assay: Radioligand (3H-flunitrazepam) competition binding assay, BZD site; conditions: 3H-flunitrazepam 1 nM; HEK293 membranes expressing human α5β3γ2
From the text: α, β and γ subunits are essential for the formation of a complete functional GABAA receptor. In this example, HEK293 cell strains stably expressing human α5-GABAA receptor (comprising α5β3γ2 subunit) and α2-GABAA receptor (comprising α2β3γ2 subunit) were constructed and screened, respectively, by liposome transfection method (Felgner, P. L., et al., Proceedings of the National Academy of Sciences, 1987, 84:7413-7417). The specific subunit protein sequences are as follows: α5 subunit (protein sequence can be found in GenBank accession number: NM_000810.3); α2 subunit (protein sequence can be found in GenBank accession number: NM_000807.4); β3 subunit (protein sequence can be found in GenBank accession number: NM_000814.5); γ2 subunit (protein sequence can be found in GenBank accession number: NM_000816.3).
(§1) The above cell lines were subcultured. Amplification of α5β3γ2-HEK293 and α2β3γ2-HEK293 cells was used to test the affinity of the compounds to benzodiazepine site (BZD) of the GABAA receptor. During the passage of α5β3γ2-HEK293 cells, some of the suspended cells were spread on a glass slide pretreated with Poly-D-Lysine for electrophysiological testing.
Flunitrazepam is a non-specific reagent that binds to the BZD site efficiently. The affinity of the compounds to the BZD sites of the human α5β3γ2 and α2β3γ2 receptors can be determined by competing the compound with ^3H-flunitrazepam (isotope ^3H-labeled flunitrazepam) for binding to these two receptors.
Membrane preparation: HEK293 cells stably expressing human α5β3γ2 receptor or α2β3γ2 receptor were collected, suspended in 50 mM Tris-HCl buffer (pH=7.4), homogenized on ice by a homogenizer for 20 seconds 10 times, and centrifuged at 4° C., 1000 g for 10 min. The supernatant was collected, and the above steps were repeated. The supernatant was centrifuged (33800 g; centrifuge purchased from Thermo, rotor model: A27-8×50) at 4° C. for 60 min, and the precipitate was resuspended in Tris buffer (50 mM Tris-HCl, 10 mM MgCl2, 0.5 mM EDTA, 10% glycerol). The precipitate was the cell membrane. Protein content was determined by BCA (Bicinchoninic Acid) method (BCA kit from Pierce (Annoron)). The cell membrane was prepared into 1 ml aliquot and stored at −80° C.
Radioligand competition binding assay: the assay was carried out in a 200 μL system (96-well plate from Agilent) with 100 μL of cell membrane. The concentration of ^3H-flunitazepam (from PerkinElmer, lot: NET567250 UC) was 1 nM and the concentration of test compound was in the range 1×10^−5-10^−6 M. Flumazenil (from Tocris; lot: 1318) was used as a control. 1 μL of 2 mM flumazenil (final concentration 10 μM) was added to the Low signal control well (Low control, LC) and 1 μL of DMSO (from Sigma aldrich, lot: 472301) was added to the High signal control well (High control, HC). The final target membrane protein concentration was 5 μg/well. All test compound sample stocks were 10 mM DMSO solutions. The working concentration of the samples is to dilute all samples with DMSO to 0.2 mM, and then perform 4-fold continuous gradient dilution for a total of 8 concentration gradients. The 96-well plate was sealed with a plate sealing membrane and then incubated on a shaker at room temperature for 1 hour. Meanwhile, GF/C filter plate was soaked with a plate soaking buffer (0.3% PEI, polyethyleneimine, purchased from Sigma aldrich, model: P314, stored at 4° C.) for at least 0.5 hours. After completion of binding incubation, the cells were collected with a cell collector onto the GF/C filter plate and washed four times with a plate washing buffer (50 mM Tris-HCl, pH 7.4, stored at 4° C.). […]

α5-GABAA receptor = α5-GABAA receptor (Homo sapiens (Human), UniProt P18507+P31644); assay: Whole-cell patch clamp electrophysiology, inverse regulation activity in α5β3γ2-HEK293 cells; format: cell-based; conditions: compound 100 nM; GABA 0.05-0.06 μM (about EC7-8); clamped at −60 mV; read-out: Inverse regulation efficiency to α5-GABAA receptor
From the text: α, β and γ subunits are essential for the formation of a complete functional GABAA receptor. […] The specific subunit protein sequences are as follows: α5 subunit (protein sequence can be found in GenBank accession number: NM_000810.3); α2 subunit (protein sequence can be found in GenBank accession number: NM_000807.4); β3 subunit (protein sequence can be found in GenBank accession number: NM_000814.5); γ2 subunit (protein sequence can be found in GenBank accession number: NM_000816.3).
as §1
The inverse regulation activity of the test drugs on α5-GABAA receptor was detected by an electrophysiological method. The specific method was as follows:
Compound concentration setting: the final concentration of the compounds used for compound screening was 100 nM. GABA concentration was 0.05-0.06 μM (about EC7-8). […] The extracellular fluid (ECS) ingredients for electrophysiology were as follows: 150 mM NaCl, 5 mM KCl, 2.5 mM CaCl2, 1 mM MgCl2, 10 mM HEPES and 10 mM glucose (pH 7.4); the electrode internal solution (ICS) formula for electrophysiology was as follows: 140 mM CsCl, 11 mM EGTA, 10 mM HEPES, 2 mM CaCl2, 1 mM MgCl2, 4 mM MgATP, 2 mM TEA (pH 7.3). The above reagents were all purchased from Sigma aldrich. GABA (γ-aminobutyric acid, from sigma aldrich, lot: A5385) powder was prepared into a stock solution with pure water and then diluted in ECS. The compound was first prepared into a 4 mM stock solution with DMSO, and then gradually diluted in corresponding concentrations of GABA-ECS. The solutions were all prepared fresh prior to electrophysiological testing.
Electrophysiological signal acquisition were performed by using EPC 10 amplifier and PatchMaster software (HEKA) or Axon 700 B amplifier and Clampex software (AXON). The recording electrode was made by drawing borosilicate glass (purchased from sutter), and has an electrode resistance of 4˜6 MΩ. Extracellular administration was carried out using ALA-VC-8PG (purchased from ALA, USA) system. A single independently grown cell was selected, and lysis was performed after the glass electrode and the cell forming a good seal, to form a whole cell mode. With the cellular membrane potential clamped at −60 mV, recording was carried out in the Gap-free mode. For the test, extracellular fluid was first applied extracellularly for about 20 seconds. After baseline (Iprebaseline) was stabilized, the extracellular fluid was switched to GABA-ECS. At this time, the current (Igaba) caused by GABA can be detected. At about 20-40 seconds, after the current stabilized, the extracellular fluid was switched to a mixed solution of the compound and GABA-ECS, until the current (Itreatment) caused by both the compound and GABA can be detected. Finally, the solution was switched to the extracellular fluid and the test was terminated after recording for 20-40 seconds.
The experimental results were analyzed using PatchMaster v2x90.1 or PatchMaster v2x90.3 software (EPC 10 amplifier) and Clampex10.6 software (Axon700B amplifier). The current value of each stage was calculated according to the average value of the stabilized current under the corresponding conditions. We defined the control current as Igaba−Iprebaseline, and the current after compound treatment as Itreatment−Iprebaseline. The inverse regulation activity of the compounds is expressed as a percentage and is calculated according to the following formula: Inverse regulation efficiency=[(Itreatment−Igaba)/(Igaba−Iprebaseline)]×100%.

[2] = Stability in simulated gastric fluid (SGF); format: physicochemical; conditions: 37° C., 1000 rpm
Experimental: Simulated gastric fluid (SGF), Manufacturer: Dongguan Chuangfeng Automation Technology Co., Ltd.; Product model: CF-006.
Oscillating constant temperature metal bath, Model: Thermo; Manufacturer: Digital Skaking Drybath.
Temperature: 37° C.; rotating speed: 1000 rpm; sampling time: 0, 4 hours.
Chromatographic column: Welch Xtimate C18 3.0×100 mm, 5 μm. Mobile phase: A: 0.04% trifluoroacetic acid (TFA)/H2O (v/v), B: acetonitrile (ACN). Gradient elution was performed according to the following table, flow rate: 1.0 mL/min; injection volume: 5 μL; column temperature: 35° C.; wavelength: 254 nm.
• (a) preparation of 0.04% TFA/H2O: 400 μL of TFA was measured, placed into 1 L of H2O, and homogenously mixed; • (b) Sample stock solution: about 3 mg of test sample was weighed, and prepared into a stock solution of 10 mmol/L using DMSO; • (c) 50 μL of the sample stock solution was taken, placed into a 5 mL volumetric flask, made up to the scale with the addition of SGF, and homogenously mixed. 400 μL of the solution was taken, four samples in parallel, and shaken at 1000 rpm and 37° C.; • (d) every two samples were taken after 0 and 4 hours respectively, 400 μL of acetonitrile was added, and homogenously mixed, followed by liquid phase injection, and calculation of the change % of the main peak area in the solution after 4 hours relative to 0 hour, two average value reports being taken at each time point.

Ki [1] [nM]	inhibition at 0.1 µM (α5-GABAA receptor) [%]	Residual content in simulated gastric juice after 4 hours (compared with 0 hour content) [2]	SMILES
7.7	29	46% (4 hours)	Cc1onc(-c2ccc(F)cc2)c1COc1ccc(-c2nnc3n2CCN(C)C3=O)cn1 [Compound 2, 3-(6-((3-(4-fluorophenyl)-5-methylisoxazol-4-yl)methoxy)pyridin-3-yl)-7-methyl-6,7-dihydro-[1,2,4]triazolo[4,3-a]pyrazin-8 (5H)-one]
1.66	24	102% (4 hours)	Cc1onc(-c2ccc(F)cc2)c1COc1cnc(-c2cnn3c2CCC3)cn1 [Compound 3]
–	–	89% (4 hours)	Cc1onc(-c2ccc(F)cc2)c1COc1cnc(-c2nnc3n2CCN(C2CCC2)C3=O)cn1 [Compound 4, 7-cyclobutyl-3-(5-((3-(4-fluorophenyl)-5-methylisoxazol-4-yl)methoxy)pyrazin-2-yl)-6,7-dihydro-[1,2,4]triazolo[4,3-a]pyrazin-8(5H)-one]
–	–	64% (4 hours)	Cc1onc(-c2ccc(F)cc2)c1COc1cnc(-c2cc3n(c(=O)n2)CC24CC(CN32)C4)cn1 [Compound 9, 3-(5-((3-(4-fluorophenyl)-5-methylisoxazol-4-yl)methoxy)pyrazin-2-yl)-7,8-dihydro-1H,6H,9H-7,8a-methanopyrrolo[1′,2′:3.4]imidazo[1,2-c]pyrimidin-1-one]
2.6	24	93% (4 hours)	Cc1onc(-c2ccc(F)cc2)c1COc1cnc(-c2nnn3c2COCC3)cn1 [Compound 12, 3-(5-((3-(4-fluorophenyl)-5-methylisoxazol-4-yl)methoxy)pyrazin-2-yl)-6,7-dihydro-4H-[1,2,3]triazolo[5,1-c][1,4]oxazine]
6.93	15	76% (4 hours)	Cc1onc(-c2ccc(F)cc2)c1COc1cnc(-c2nnc3n2CCN(C)C3)cn1 [Compound 16]
–	–	80% (4 hours)	Cc1onc(-c2ccc(F)cc2)c1COc1cnc(N2CCn3c(nnc3C(F)(F)F)C2=O)cn1 [Compound 26, 7-(5-((3-(4-fluorophenyl)-5-methylisoxazol-4-yl)methoxy)pyrazin-2-yl)-3-(trifluoromethyl)-6,7-dihydro-[1,2,4]triazolo[4,3-a]pyrazin-8(5H)-one]
3.9	39	63% (4 hours)	Cc1onc(-c2ccc(F)cc2)c1COc1cnc(N2CCn3c(C)nnc3C2)cn1 [Compound 27]
–	–	87% (4 hours)	Cc1onc(-c2ccc(F)cc2)c1COc1cnc(N2CCn3cccc3C2=O)cn1 [Compound 45, 2-(5-((3-(4-fluorophenyl)-5-methylisoxazol-4-yl)methoxy)pyrazin-2-yl)-3,4-dihydropyrrolo [1,2-a]pyrazin-1(2H)-one]
–	31	82% (4 hours)	Cc1onc(-c2ccc(F)cc2)c1COc1cnc(-c2cc3n(c(=O)n2)CCN3C)cn1 [Compound 47, 7-(5-((3-(4-fluorophenyl)-5-methylisoxazol-4-yl)methoxy)pyrazin-2-yl)-1-methyl-2,3-dihydroimidazo[1,2-c]pyrimidin-5(1H)-one]
–	–	15% (4 hours)	Cc1onc(-c2ccc(F)cc2)c1COc1ccc(C(=O)NC2CCOCC2)cn1 [WO2009071476, Example 109, reference compound]
–	–	2% (4 hours)	Cc1onc(-c2ccc(F)cc2)c1COc1ccc(C(=O)N2CCS(=O)(=O)CC2)cn1 [WO2009071476, Example 112, reference compound]
–	–	0% (4 hours)	Cc1onc(-c2ccc(F)cc2)c1COc1ccc(C(=O)NC2CCOCC2)nn1 [WO2009071477, Example 63, reference compound]
